Laboratory results as given in patent publication US8501732B2, “Aminomethyl quinolone compounds” (Hoffmann-La Roche Inc., priority 2011, dated 2013).

target: JNK1 (Homo sapiens (Human), UniProt P45983); assay: In Vitro JNK1 Assay (TR-FRET, phosphorylation of GST-c-Jun); type: biochemical; details: not given
Experimental: Phosphorylation of GST-c-Jun protein (amino acid residues 1-79) was measured as JNK1 activity. […] The reaction buffer contained 50 mM HEPES, pH […], 1 mM DTT, 0.1 mM Na3VO4 and 0.2 mg/mL BSA. After 30 min. incubation at room temperature, the reaction was terminated by adding buffer containing 8 mM EDTA and a polyclonal anti-phospho-c-Jun antibody (Cell Signaling #9261L), followed by an additional incubation of 30 min. at room temperature. […] Time-resolved Fluorescence Resonance Energy Transfer (TR-FRET) signals were measured 1 hr. later on the EnVision reader (Perkin Elmer). Compound potency was assessed at 10 serially diluted concentrations. Percentage of inhibition at each concentration was determined to generate an IC50 value for each compound.

JNK1, sequence (P45983 whole entry, the tested form may be a part): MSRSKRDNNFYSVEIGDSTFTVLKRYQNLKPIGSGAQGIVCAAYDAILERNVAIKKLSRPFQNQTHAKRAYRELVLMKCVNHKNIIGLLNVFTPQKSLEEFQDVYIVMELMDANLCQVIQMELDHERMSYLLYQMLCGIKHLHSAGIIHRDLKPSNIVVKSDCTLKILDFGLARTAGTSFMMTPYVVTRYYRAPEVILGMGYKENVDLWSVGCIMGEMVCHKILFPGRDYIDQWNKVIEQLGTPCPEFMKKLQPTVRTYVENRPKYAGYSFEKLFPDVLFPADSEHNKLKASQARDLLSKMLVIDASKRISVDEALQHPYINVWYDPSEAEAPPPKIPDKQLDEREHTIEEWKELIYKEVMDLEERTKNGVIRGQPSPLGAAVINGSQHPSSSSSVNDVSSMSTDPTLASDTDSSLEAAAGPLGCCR

SMILES | IC50
O=C(NCc1cn(-c2ccccc2)c2cc(Cl)ccc2c1=O)NC1CCN(C(=O)Oc2ccccc2)CC1 [Example I-193, 4-[3-(7-Chloro-4-oxo-1-phenyl-1,4-dihydro-quinolin-3-ylmethyl)-ureido]-piperidine-yl-carboxylic acid phenyl ester] | 180 nM

same assay, conditions: 0.2 nM active JNK1 kinase, 26.7 nM GST-c-Jun, 2 μM ATP, 30 min at room temperature

SMILES | IC50
COC(=O)c1c(CNC(=O)C2CCN(S(C)(=O)=O)CC2)c(=O)c2ccc(Cl)cc2n1-c1ccccc1 [Example I-131, 7-Chloro-3-{[(1-methanesulfonyl-piperidine-4-carbonyl)-amino]-methyl}-4-oxo-1-phenyl-1,4-dihydro-quinoline-2-carboxylic acid methyl ester] | 640 nM
CC(C)(C)OC(=O)N[C@H]1CC[C@@H](NC(=O)NCc2cn(-c3ccccc3)c3cc(Cl)ccc3c2=O)CC1 [Example I-181, {4-[3-(7-Chloro-4-oxo-1-phenyl-1,4-dihydro-quinolin-3-ylmethyl)-ureido]-cyclohexyl}-carbamic acid tert-butyl ester] | 200 nM
O=c1c(CNc2nc3ccccc3s2)cn(-c2ccccc2)c2cc(Cl)ccc12 [Example I-175, 3-(Benzothiazol-2-ylaminomethyl)-7-chloro-1-phenyl-1H-quinolin-4-one] | 700 nM
COC(=O)c1c(CNC(=O)c2ccccc2Cl)c(=O)c2ccc(Cl)cc2n1-c1ccccc1 [Example I-148, 7-Chloro-3-[(2-chloro-benzoylamino)-methyl]-4-oxo-1-phenyl-1,4-dihydro-quinoline-2-carboxylic acid methyl ester] | 430 nM
COC(=O)c1c(CNC(=O)c2ccc(N(C)C)cc2)c(=O)c2ccc(OC)cc2n1-c1ccccc1 [Example I-167, 3-[(4-Dimethylamino-benzoylamino)-methyl]-7-methoxy-4-oxo-1-phenyl-1,4-dihydro-quinoline-2-carboxylic acid methyl ester] | 180 nM
O=c1c(CNc2nc3ccccc3[nH]2)cn(-c2ccccc2)c2cc(Cl)ccc12 [Example I-176, 3-[(1H-Benzoimidazol-2-ylamino)-methyl]-7-chloro-1-phenyl-1H-quinolin-4-one] | 850 nM
COC(=O)[C@H]1CC[C@H](NC(=O)NCc2cn(-c3ccccc3)c3cc(Cl)ccc3c2=O)CC1 [Example I-189, 4-[3-(7-Chloro-4-oxo-1-phenyl-1,4-dihydro-quinolin-3-ylmethyl)-ureido]-cyclohexanecarboxylic acid methyl ester] | 2000 nM
COC(=O)c1ccc(C(=O)NCc2c(-c3ncco3)n(-c3ccccc3)c3cc(Cl)ccc3c2=O)cn1 [Example I-5, 5-[(7-Chloro-2-oxazol-2-yl-4-oxo-1-phenyl-1,4-dihydro-quinolin-3-ylmethyl)-carbamoyl]-pyridine-2-carboxylic acid methyl ester] | 25 nM
N#C/N=C(/NCc1cn(-c2ccccc2)c2cc(Cl)ccc2c1=O)Nc1ccccc1 [Example I-178, [(7-Chloro-4-oxo-1-phenyl-1,4-dihydro-quinolin-3-ylmethyl)-amino]-phenylamino-methylene-cyanamide] | 2700 nM
COC(=O)c1c(CNc2nccc3ccccc23)c(=O)c2ccc(Cl)cc2n1-c1ccccc1 [Example I-207, 7-Chloro-3-(isoquinolin-1-ylaminomethyl)-4-oxo-1-phenyl-1,4-dihydro-quinoline-2-carboxylic acid methyl ester] | 110 nM

More lines, now with the values ahead:

IC50 | SMILES
1400 nM | CN1CCN(C(=O)NCc2cn(-c3ccccc3)c3cc(Cl)ccc3c2=O)CC1 [Example I-187, 4-Methyl-piperazine-1-carboxylic acid (7-chloro-4-oxo-1-phenyl-1,4-dihydro-quinolin-3-ylmethyl)-amide]
110 nM | Cn1cnc2cc(C(=O)NCc3cn(-c4ccccc4)c4cc(Cl)ccc4c3=O)cnc21 [Example I-45, 3-Methyl-3H-imidazo[4,5-b]pyridine-6-carboxylic acid (7-chloro-4-oxo-1-phenyl-1,4-dihydro-quinolin-3-ylmethyl)-amide]
1200 nM | O=C(NCc1cn(-c2ccccc2)c2cc(Cl)ccc2c1=O)N1CCCC1 [Example I-186, Pyrrolidine-1-carboxylic acid (7-chloro-4-oxo-1-phenyl-1,4-dihydro-quinolin-3-ylmethyl)-amide]
250 nM | CN1CCN(c2ccc(C(=O)NCc3cn(-c4ccccc4)c4cc(Cl)ccc4c3=O)cn2)CC1 [Example I-88, N-(7-Chloro-4-oxo-1-phenyl-1,4-dihydro-quinolin-3-ylmethyl)-6-(4-methyl-piperazin-1-yl)-nicotinamide]
190 nM | O=C(NCc1cn(-c2ccccc2)c2cc(Cl)ccc2c1=O)NC1CCN(C(=O)c2ccccc2)CC1 [Example I-194, 1-(1-Benzoyl-piperidin-4-yl)-3-(7-chloro-4-oxo-1-phenyl-1,4-dihydro-quinolin-3-yl-methyl)-urea]
190 nM | O=C(NCc1cn(-c2ccccc2)c2cc(Cl)ccc2c1=O)c1cnc(N2CCOCC2)nc1 [Example I-56, 2-Morpholin-4-yl-pyrimidine-5-carboxylic acid (7-chloro-4-oxo-1-phenyl-1,4-dihydro-quinolin-3-ylmethyl)-amide]
140 nM | O=c1c(CNc2cc(N3CCCCC3)ncn2)cn(-c2ccccc2)c2cc(Cl)ccc12 [Example I-173, 7-Chloro-1-phenyl-3-[(6-piperidin-1-yl-pyrimidin-4-ylamino)-methyl]-1H-quinolin-4-one]
